Measurements: ChEMBL document CHEMBL5543109, “Novel β-Hairpin Antimicrobial Peptide Containing the β-Turn Sequence of -NG- and the Tryptophan Zippers Facilitate Self-Assembly into Nanofibers, Exhibiting Excellent Antimicrobial Performance” (J Med Chem, 2024)
Values after ≈ are worked out from the molar mass of the structure shown. Active and inactive are the calls of the source. No cut-off for these calls is given here.

Key:
Staphylococcus aureus [1] = experiment: Antibacterial activity against Staphylococcus aureus ATCC 25923 incubated for 18 hrs by broth microdilution method; assay type: functional
[2] = test system: Staphylococcus epidermidis; experiment: Bactericidal activity against Staphylococcus epidermidis ATCC 12228 incubated for 18 hrs by broth microdilution method; assay type: functional
Klebsiella pneumoniae [3] = experiment: Bactericidal activity against Klebsiella pneumoniae ATCC 700603 incubated for 18 hrs by broth microdilution method; assay type: functional
Escherichia coli [4] = experiment: Bactericidal activity against Escherichia coli ATCC 25922 incubated for 18 hrs by broth microdilution method; assay type: functional
[5] = Self-assembly property of compound in PBS assessed as critical aggregation concentration incubated for 48 hrs; assay type: physicochemical; conditions: buffer
[6] = Stability in mouse serum assessed as half-life measured upto 48 hrs by RP-HPLC analysis; assay type: ADME, cell-free
Pseudomonas aeruginosa [7] = experiment: Antibacterial activity against Pseudomonas aeruginosa incubated for 18 hrs in presence of ZnCl2 by broth microdilution method; assay type: functional, organism-based
Escherichia coli [8] = experiment: Antibacterial activity against Escherichia coli at 2 times MIC preincubated with 256 ug/ml LPS for 1 hr followed by bacterial addition and measured after 5 hrs; assay type: functional, organism-based; conditions: time 6.0 hrs
Cell membrane [9] = experiment: Induction of inner membrane permeabilization in Escherichia coli ML-35 […] measured every 5 mins for 120 mins by ONPG dye based assay; assay type: cell membranes
Cell membrane [10] = experiment: Induction of cytoplasmic membrane depolarization in Staphylococcus aureus at 0.5 times MIC by DiSC3-5 dye based fluorescence method; assay type: cell membranes
Pseudomonas aeruginosa [11] = experiment: Induction of morphological change in Pseudomonas aeruginosa assessed as leakage of cellular contents at 2 times MIC incubated for 30 mins by SEM analysis; assay type: functional, organism-based
Klebsiella pneumoniae [12] = experiment: Bactericidal activity against Klebsiella pneumoniae at 2 times MIC within 90 mins; assay type: functional; conditions: 1.5 h
Escherichia coli [13] = experiment: Synergistic antibacterial activity against kanamycin resistant Escherichia coli assessed as fractional inhibitory concentration index incubated for 18 hrs in presence of cefotaxime by checkerboard assay; assay type: functional
Staphylococcus aureus [14] = experiment: Synergistic antibacterial activity against Staphylococcus aureus 794 assessed as fractional inhibitory concentration index incubated for 18 hrs in presence of cefotaxime by checkerboard assay; assay type: functional
Escherichia coli [15] = experiment: Synergistic antibacterial activity against Escherichia coli assessed as fractional inhibitory concentration index incubated for 18 hrs in presence of rifampin by checkerboard assay; assay type: functional
Pseudomonas aeruginosa [16] = experiment: Additive antibacterial activity against Pseudomonas aeruginosa assessed as fractional inhibitory concentration index incubated for 18 hrs in presence of rifampin by checkerboard assay; assay type: functional
Escherichia coli [17] = experiment: Additive antibacterial activity against Escherichia coli assessed as fractional inhibitory concentration index incubated for 18 hrs in presence of kanamycin by checkerboard assay; assay type: functional
Staphylococcus aureus [18] = experiment: Additive antibacterial activity against Staphylococcus aureus assessed as fractional inhibitory concentration index incubated for 18 hrs in presence of bacitracin by checkerboard assay; assay type: functional
Staphylococcus aureus [19] = experiment: Additive antibacterial activity against Staphylococcus aureus assessed as fractional inhibitory concentration index incubated for 18 hrs in presence of polymyxin B by checkerboard assay; assay type: functional
Klebsiella pneumoniae [20] = experiment: […] antibacterial activity against Klebsiella pneumoniae assessed as fractional inhibitory concentration index incubated for 18 hrs in presence of polymyxin B by checkerboard assay; assay type: functional
Pseudomonas aeruginosa [21] = experiment: Synergistic antibacterial activity against Pseudomonas aeruginosa assessed as fractional inhibitory concentration index incubated for 18 hrs in presence of polymyxin B by checkerboard assay; assay type: functional
[22] = Acute toxicity in mouse assessed as mortality rate at 300 mg/kg, ip by karber method; assay type: organism-based; conditions: in vivo, read-out: Activity
[23] = Acute toxicity in mouse assessed as inflammatory cell infiltration in lung at 230.5 mg/kg, ip by H and E staining based assay; assay type: organism-based; conditions: in vivo
Escherichia coli [24] = experiment: Antibacterial activity against Escherichia coli infected in BALB/c mouse systemic infection model assessed as reduction in lung bacterial load at 5 to 10 mg/kg, ip measured after 24 hrs; assay type: functional, organism-based; conditions: dose 5-10 mg/kg
Staphylococcus aureus [25] = experiment: Antibacterial activity against Staphylococcus aureus infected in BALB/c mouse systemic infection model assessed as reduction in liver bacterial load at 5 to 10 mg/kg, ip measured after 8 hrs; assay type: functional, organism-based; conditions: dose 5-10 mg/kg
Staphylococcus aureus [26] = experiment: Antibacterial activity against Staphylococcus aureus infected in BALB/c mouse systemic infection model assessed as reduction in kidney bacterial load at 5 to 10 mg/kg, ip measured after 8 hrs; assay type: functional, organism-based; conditions: dose 5-10 mg/kg
Staphylococcus aureus [27] = experiment: Antibacterial activity against Staphylococcus aureus 794 infected in BALB/c mouse skin wound infection model assessed as reduction in wound bacterial load at 1 mg/ml, ip administered at 1 hr interval for total 6 treatment and measured after 1 hr post last dose in presence of vancomycin; assay type: functional, organism-based; conditions: time 7.0 hrs
Staphylococcus aureus [28] = experiment: Antibacterial activity against Staphylococcus aureus 794 infected in BALB/c mouse skin wound infection model assessed as reduction in wound area at 1 mg/ml, ip pre-infected with bacteria for 24 hrs followed by compound addition and measured on day 5 in presence of vancomycin; assay type: functional, organism-based; conditions: time 5.0 day
Staphylococcus aureus [29] = experiment: Antibacterial activity against methicillin resistant Staphylococcus aureus incubated for 18 hrs by broth microdilution method; assay type: functional
Staphylococcus aureus [30] = experiment: Antibacterial activity against Staphylococcus aureus incubated for 18 hrs by broth microdilution method; assay type: functional

Q: Which results are given for NCCCC[C@@H](NC(=O)[C@H](N)Cc1c[nH]c2ccccc12)C(=O)N[C@H](Cc1c[nH]c2ccccc12)C(=O)N[C@H](CCCCN)C(=O)N[C@H](Cc1c[nH]c2ccccc12)C(=O)N[C@@H](CC(N)=O)C(=O)NCC(=O)N[C@H](Cc1c[nH]c2ccccc12)C(=O)N[C@H](CCCCN)C(=O)N[C@H](Cc1c[nH]c2ccccc12)C(=O)N[C@H](CCCCN)C(=O)N[C@H](Cc1c[nH]c2ccccc12)C(N)=O?
A: MIC (Staphylococcus aureus [1]): 4 µM (≈ 7.27 µg/mL); MBC [2]: 4 µM (≈ 7.27 µg/mL); MBC (Klebsiella pneumoniae [3]): 8 µM (≈ 14.5 µg/mL); MBC (Escherichia coli [4]): 8 µM (≈ 14.5 µg/mL); CAC [5]: 7.78 µM; half-life [6]: > 48 h; Activity (Pseudomonas aeruginosa [7]): Active; Activity (Escherichia coli [8]): inactive; Activity (Cell membrane [9]): Dose-Dependent Effect; Activity (Cell membrane [10]): inactive; Activity (Pseudomonas aeruginosa [11]): Active; Activity (Klebsiella pneumoniae [12]): 100%; fractional inhibitory concentration index (FICI) (Escherichia coli [13]): 0.375; fractional inhibitory concentration index (FICI) (Staphylococcus aureus [14]): 0.313; fractional inhibitory concentration index (FICI) (Escherichia coli [15]): 0.375; fractional inhibitory concentration index (FICI) (Pseudomonas aeruginosa [16]): 0.563; fractional inhibitory concentration index (FICI) (Escherichia coli [17]): 0.563; fractional inhibitory concentration index (FICI) (Staphylococcus aureus [18]): 0.563; fractional inhibitory concentration index (FICI) (Staphylococcus aureus [19]): 1; fractional inhibitory concentration index (FICI) (Klebsiella pneumoniae [20]): 0.375; fractional inhibitory concentration index (FICI) (Pseudomonas aeruginosa [21]): 0.188; mortality [22]: 100%; Activity [23]: Toxic; Activity (Escherichia coli [24]): Active; Activity (Staphylococcus aureus [25]): Active; Activity (Staphylococcus aureus [26]): Active; Activity (Staphylococcus aureus [27]): Active; Activity (Staphylococcus aureus [28]): Active; MIC (Staphylococcus aureus [29]): 8 µM (≈ 14.5 µg/mL); MIC (Staphylococcus aureus [30]): 4 µM (≈ 7.27 µg/mL)
